# Source: patent US20250034216A1, “STEREOSELECTIVE COVALENT LIGANDS FOR ONCOGENIC AND IMMUNOLOGICAL PROTEINS” (The Scripps Research Institute, priority 2021, published 2025)
# Key:
# EPB42_C586 = molecular target: T1, EPB42_C586 (Homo sapiens, UniProt P16452); test: IA-DTB cysteine engagement; type: binding; conditions: 22Rv1 cells, 20 μM probe, 1 h, relative to DMSO
# T1 construct: endogenous in cells; host or cells: 22Rv1
# T1 sequence (P16452 1-691): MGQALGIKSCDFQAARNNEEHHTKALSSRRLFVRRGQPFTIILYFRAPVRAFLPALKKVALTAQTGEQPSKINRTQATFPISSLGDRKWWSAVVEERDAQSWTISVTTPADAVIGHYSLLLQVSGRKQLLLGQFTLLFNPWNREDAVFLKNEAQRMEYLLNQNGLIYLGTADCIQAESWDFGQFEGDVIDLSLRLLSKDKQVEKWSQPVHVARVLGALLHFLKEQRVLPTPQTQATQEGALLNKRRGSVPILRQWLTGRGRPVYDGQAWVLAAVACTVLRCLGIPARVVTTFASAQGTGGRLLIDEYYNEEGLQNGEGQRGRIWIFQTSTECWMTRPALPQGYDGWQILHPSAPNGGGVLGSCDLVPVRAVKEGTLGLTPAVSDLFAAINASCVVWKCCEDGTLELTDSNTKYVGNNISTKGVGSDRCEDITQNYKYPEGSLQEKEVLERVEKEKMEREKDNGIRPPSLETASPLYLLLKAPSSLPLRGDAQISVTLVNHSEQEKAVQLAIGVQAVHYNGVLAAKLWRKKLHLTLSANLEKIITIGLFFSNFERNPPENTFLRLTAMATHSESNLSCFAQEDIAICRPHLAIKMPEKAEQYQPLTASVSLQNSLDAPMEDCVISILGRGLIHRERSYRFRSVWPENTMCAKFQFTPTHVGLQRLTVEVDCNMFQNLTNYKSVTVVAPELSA
# Summary of the method: (§1)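 Read-out is TMT-based cysteine engagement, expressed as each reporter ion intensity divided by the average of the DMSO channels. Before that, probe-treated cell lysates were capped with IA-DTB, digested, enriched on streptavidin and TMT-tagged. PSMs with DMSO summed intensity <10,000 or DMSO CV >0.5 were excluded.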
# NT5DC1_C119 = molecular target: T2, NT5DC1_C119 (Homo sapiens, UniProt Q5TFE4); test: IA-DTB cysteine engagement; type: binding; conditions: 22Rv1 cells, 20 μM probe, 1 h, relative to DMSO
# T2 construct: endogenous in cells; host or cells: 22Rv1
# T2 sequence (Q5TFE4 1-455): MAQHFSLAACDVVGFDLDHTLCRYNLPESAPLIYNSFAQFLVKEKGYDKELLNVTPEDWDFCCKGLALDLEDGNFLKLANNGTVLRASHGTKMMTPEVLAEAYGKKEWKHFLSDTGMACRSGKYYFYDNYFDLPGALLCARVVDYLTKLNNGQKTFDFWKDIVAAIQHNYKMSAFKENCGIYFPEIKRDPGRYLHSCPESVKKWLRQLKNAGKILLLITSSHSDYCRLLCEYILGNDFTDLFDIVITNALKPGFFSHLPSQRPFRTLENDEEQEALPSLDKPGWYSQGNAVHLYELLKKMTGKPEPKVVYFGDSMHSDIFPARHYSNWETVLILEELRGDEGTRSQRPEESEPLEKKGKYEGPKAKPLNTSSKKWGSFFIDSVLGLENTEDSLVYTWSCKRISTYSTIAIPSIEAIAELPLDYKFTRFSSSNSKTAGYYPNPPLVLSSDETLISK
# Summary of the method: as §1
Structure (SMILES),% engagement EPB42_C586 (EPB42_C586) [%],% engagement NT5DC1_C119 (NT5DC1_C119) [%]
"C=CC(=O)N1C[C@@H](c2ccc(Br)cc2)[C@H]1C(=O)Nc1cccc2cccnc12 [MY-1A, (2S,3R)-1-acryloyl-3-(4-bromophenyl)-N-(quinolin-8-yl)azetidine-2-carboxamide]",55,49
"C=CC(=O)N1C[C@H](c2ccc(Br)cc2)[C@@H]1C(=O)Nc1cccc2cccnc12 [MY-1B, (2R,3S)-1-acryloyl-3-(4-bromophenyl)-N-(quinolin-8-yl)azetidine-2-carboxamide]",33.5,63.25
"C=CC(=O)N1C[C@H](c2ccc(Br)cc2)[C@H]1C(=O)Nc1cccc2cccnc12 [MY-3A, (2S,3S)-1-acryloyl-3-(4-bromophenyl)-N-(quinolin-8-yl)azetidine-2-carboxamide]",66.5,93.5
"C=CC(=O)N1C[C@H](c2ccc(Br)cc2)[C@H]1C(=O)Nc1cccc2cccnc12 [MY-3B, (2S,3S)-1-acryloyl-3-(4-bromophenyl)-N-(quinolin-8-yl)azetidine-2-carboxamide]",43.5,79.5
